Where two headings read alike, the source gives them in different places.
Experiments:
[1] = tested on: Akt phosphorylated at Thr308 in PC-3 cells; test: Cellular assay: phosphorylation of Akt at Thr308 in PC-3 cells (MSD ELISA); format: cell-based; conditions: PC-3 cells, 60 min compound incubation, MSD ELISA, read-out: IC50 pAkt_Thr308
Summary of the method: (§1)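 After lysis of treated cells (60 min, 37° C, 0.3% DMSO), phospho-Akt levels were measured by MSD electrochemiluminescence ELISA. Potency was derived from concentration-response curves fitted over five concentrations.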

PI3Kδ = target: T1, PI3Kδ (Homo sapiens, UniProt O00329); test: Enzyme binding assay (KINOMEscan, DiscoveRx); conditions: PIK3Cδ_h
T1 construct: purchased DiscoveRx Corporation, San Diego (contract service, KINOMEscan)
T1 sequence (O00329 1-1044): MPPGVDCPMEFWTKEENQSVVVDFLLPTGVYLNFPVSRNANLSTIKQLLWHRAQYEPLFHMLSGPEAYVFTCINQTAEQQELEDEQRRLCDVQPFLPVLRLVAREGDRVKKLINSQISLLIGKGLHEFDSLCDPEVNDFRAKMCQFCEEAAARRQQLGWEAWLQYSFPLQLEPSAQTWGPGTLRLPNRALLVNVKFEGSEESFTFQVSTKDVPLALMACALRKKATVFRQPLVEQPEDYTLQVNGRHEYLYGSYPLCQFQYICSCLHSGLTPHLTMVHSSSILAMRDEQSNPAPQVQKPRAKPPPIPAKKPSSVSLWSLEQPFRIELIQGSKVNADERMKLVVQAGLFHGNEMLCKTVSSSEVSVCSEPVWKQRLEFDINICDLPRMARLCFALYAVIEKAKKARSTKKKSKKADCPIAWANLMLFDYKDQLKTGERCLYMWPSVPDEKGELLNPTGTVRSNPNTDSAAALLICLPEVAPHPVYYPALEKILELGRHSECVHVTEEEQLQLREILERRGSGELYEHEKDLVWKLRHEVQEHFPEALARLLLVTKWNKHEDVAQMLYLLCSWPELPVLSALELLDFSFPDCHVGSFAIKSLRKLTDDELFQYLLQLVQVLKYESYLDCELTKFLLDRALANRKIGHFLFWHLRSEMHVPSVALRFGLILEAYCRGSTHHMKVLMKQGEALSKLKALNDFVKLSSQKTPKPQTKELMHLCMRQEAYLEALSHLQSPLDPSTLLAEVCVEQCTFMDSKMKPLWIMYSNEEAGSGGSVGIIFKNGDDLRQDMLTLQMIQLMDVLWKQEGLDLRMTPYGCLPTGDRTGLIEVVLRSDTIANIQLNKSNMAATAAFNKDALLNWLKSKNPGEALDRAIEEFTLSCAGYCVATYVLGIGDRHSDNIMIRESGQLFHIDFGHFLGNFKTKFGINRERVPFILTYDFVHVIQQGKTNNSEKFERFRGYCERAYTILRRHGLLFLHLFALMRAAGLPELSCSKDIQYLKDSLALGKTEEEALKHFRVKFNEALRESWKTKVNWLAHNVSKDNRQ
Summary of the method: (§2)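 Affinity for each kinase was determined by KINOMEscan profiling.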

PI3Kβ = target: T2, PI3Kβ (Homo sapiens, UniProt P42338); test: Enzyme binding assay (KINOMEscan, DiscoveRx); conditions: PIK3Cβ_h, read-out: Kd PIK3Cβ_h
T2 construct: purchased DiscoveRx Corporation, San Diego (contract service, KINOMEscan)
Summary of the method: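 Values are Kd in nM, the binding constant of each inhibitor for the kinase, obtained from a KINOMEscan enzyme binding assay.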

[2] = tested on: Akt phosphorylated at Ser473 in PC-3 cells; test: Cellular assay: phosphorylation of Akt at Ser473 in PC-3 cells (MSD ELISA); format: cell-based; conditions: PC-3 cells, 60 min compound incubation, MSD ELISA, read-out: IC50 pAkt_S473
Summary of the method: as §1

kinase enzymes [3] = target: T3, kinase enzymes (Homo sapiens, UniProt P42336); test: Enzyme binding assay (KINOMEscan, DiscoveRx), further kinases of Table A; conditions: PIK3Cα_h
T3 construct: purchased DiscoveRx Corporation, San Diego (contract service, KINOMEscan)
Summary of the method: as §2

kinase enzymes [4] = target: T4, kinase enzymes (Homo sapiens, UniProt P48736); test: as above; conditions: PIK3Cγ_h
T4 construct: purchased DiscoveRx Corporation, San Diego (contract service, KINOMEscan)
Summary of the method: as §2

kinase enzymes [5] = target: T5, kinase enzymes (Homo sapiens, UniProt P42345); test: as above; conditions: MTOR_h
T5 construct: purchased DiscoveRx Corporation, San Diego (contract service, KINOMEscan)
Summary of the method: as §2

T3 sequence (P42336 whole entry): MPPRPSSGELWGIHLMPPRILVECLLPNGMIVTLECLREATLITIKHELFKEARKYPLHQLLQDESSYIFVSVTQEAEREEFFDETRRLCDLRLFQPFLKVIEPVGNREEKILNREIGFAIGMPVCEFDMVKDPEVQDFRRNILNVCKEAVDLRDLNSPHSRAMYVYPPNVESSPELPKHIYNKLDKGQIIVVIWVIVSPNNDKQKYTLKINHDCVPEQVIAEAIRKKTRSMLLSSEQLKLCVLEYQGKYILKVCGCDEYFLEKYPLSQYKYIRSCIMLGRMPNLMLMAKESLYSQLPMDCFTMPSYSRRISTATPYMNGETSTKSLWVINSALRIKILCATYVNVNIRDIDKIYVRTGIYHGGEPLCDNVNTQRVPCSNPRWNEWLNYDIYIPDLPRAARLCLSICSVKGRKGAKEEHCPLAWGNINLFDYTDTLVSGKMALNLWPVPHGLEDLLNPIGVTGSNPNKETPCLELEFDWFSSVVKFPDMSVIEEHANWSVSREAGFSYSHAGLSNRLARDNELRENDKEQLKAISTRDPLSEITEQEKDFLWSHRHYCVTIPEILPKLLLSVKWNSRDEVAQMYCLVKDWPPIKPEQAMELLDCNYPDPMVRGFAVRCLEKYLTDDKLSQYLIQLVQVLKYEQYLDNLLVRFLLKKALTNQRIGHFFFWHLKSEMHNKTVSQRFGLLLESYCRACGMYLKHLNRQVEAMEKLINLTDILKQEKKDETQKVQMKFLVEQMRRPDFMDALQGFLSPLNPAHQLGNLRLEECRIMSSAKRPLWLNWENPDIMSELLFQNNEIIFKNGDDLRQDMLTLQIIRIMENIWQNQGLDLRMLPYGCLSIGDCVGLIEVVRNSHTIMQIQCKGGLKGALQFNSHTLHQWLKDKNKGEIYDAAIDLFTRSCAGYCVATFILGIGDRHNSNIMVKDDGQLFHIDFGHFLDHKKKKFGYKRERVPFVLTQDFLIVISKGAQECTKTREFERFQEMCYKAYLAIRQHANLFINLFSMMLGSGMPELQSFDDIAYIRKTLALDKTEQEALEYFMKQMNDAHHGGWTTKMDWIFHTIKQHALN
T4 sequence (P48736 whole entry): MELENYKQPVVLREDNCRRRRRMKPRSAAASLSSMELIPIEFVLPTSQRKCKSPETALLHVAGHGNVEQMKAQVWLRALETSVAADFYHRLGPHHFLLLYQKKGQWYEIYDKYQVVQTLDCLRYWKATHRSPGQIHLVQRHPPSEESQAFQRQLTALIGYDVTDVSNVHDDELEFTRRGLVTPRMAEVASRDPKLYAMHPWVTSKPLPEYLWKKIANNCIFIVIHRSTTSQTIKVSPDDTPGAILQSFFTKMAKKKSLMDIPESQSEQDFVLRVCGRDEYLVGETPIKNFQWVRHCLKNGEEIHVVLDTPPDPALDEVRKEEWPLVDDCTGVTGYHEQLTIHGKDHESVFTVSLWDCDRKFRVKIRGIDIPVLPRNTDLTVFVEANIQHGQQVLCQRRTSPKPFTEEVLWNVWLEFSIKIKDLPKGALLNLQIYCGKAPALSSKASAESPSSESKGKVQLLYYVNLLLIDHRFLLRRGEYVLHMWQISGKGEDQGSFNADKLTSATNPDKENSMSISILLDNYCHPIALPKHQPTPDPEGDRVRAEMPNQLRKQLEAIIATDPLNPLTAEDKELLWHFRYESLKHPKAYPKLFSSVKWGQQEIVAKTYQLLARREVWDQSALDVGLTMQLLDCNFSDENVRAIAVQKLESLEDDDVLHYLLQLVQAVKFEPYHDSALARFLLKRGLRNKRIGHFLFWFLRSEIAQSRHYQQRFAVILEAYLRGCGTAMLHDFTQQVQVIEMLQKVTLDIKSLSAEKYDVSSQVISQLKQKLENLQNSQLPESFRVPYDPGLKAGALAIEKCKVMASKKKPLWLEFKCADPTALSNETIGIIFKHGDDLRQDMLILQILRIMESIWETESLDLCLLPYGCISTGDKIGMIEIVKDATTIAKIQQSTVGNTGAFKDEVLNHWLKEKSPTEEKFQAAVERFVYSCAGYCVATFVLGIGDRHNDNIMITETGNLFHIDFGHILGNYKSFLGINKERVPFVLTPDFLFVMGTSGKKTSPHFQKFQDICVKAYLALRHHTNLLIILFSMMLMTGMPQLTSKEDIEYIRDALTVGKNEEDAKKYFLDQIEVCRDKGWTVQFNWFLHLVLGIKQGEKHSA
T2 sequence (P42338 whole entry): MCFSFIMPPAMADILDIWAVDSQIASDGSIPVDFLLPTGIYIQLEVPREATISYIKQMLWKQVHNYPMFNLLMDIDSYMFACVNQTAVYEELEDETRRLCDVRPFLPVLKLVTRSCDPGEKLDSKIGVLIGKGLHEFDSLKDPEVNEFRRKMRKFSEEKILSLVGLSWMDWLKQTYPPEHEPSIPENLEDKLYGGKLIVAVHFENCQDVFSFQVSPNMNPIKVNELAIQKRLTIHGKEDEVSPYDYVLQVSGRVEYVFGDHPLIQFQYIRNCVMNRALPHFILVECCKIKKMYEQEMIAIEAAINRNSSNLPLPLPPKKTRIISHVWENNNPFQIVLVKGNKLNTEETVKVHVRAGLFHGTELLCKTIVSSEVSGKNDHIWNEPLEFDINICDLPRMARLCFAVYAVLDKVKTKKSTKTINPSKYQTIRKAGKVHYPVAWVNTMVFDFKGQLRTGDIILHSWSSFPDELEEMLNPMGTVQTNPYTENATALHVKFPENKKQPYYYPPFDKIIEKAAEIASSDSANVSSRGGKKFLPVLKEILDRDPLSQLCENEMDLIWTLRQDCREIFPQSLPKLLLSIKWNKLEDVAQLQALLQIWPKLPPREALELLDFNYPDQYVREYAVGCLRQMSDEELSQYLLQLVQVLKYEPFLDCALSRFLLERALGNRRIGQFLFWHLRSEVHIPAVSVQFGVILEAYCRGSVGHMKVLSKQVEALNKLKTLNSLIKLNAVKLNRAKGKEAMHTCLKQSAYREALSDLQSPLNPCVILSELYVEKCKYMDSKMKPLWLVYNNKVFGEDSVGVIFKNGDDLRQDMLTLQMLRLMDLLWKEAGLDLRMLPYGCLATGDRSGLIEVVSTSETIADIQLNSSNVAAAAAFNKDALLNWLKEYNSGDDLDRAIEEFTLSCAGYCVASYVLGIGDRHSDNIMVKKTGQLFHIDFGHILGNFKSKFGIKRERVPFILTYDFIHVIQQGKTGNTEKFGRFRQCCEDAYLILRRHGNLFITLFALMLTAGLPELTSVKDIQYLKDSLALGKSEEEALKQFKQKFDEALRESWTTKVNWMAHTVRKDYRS

Row | Compound | melting point | IC50 [1] | Kd (PI3Kδ) | Kd (PI3Kβ) | IC50 [2] | Kd (kinase enzymes [3]) | Kd (kinase enzymes [4]) | Kd (kinase enzymes [5]) | IC50 ([1]; Homo sapiens, PC-3, 1 h) | IC50 ([2]; Homo sapiens, PC-3, 1 h)
1 | CC(Oc1cccc(F)c1)c1cc(C(=O)NCCO)cc2ncc(N3CCOCC3)nc12 (single isomer, unassigned) [Compound 334b] | 134 °C | > 513 nM | 7590 nM | 457 nM | > 513 nM | 21400 nM | 11000 nM | 17400 nM | – | –
2 | CNCCN(C)C(=O)c1cc(C(C)Nc2cc(F)c(F)c(F)c2)c2nc(N3CCOCC3)cnc2c1 (single isomer, unassigned) [Compound 335b] | 80 °C | 207 nM | 3420 nM | 11 nM | 188 nM | 8320 nM | 13500 nM | > 30200 nM | – | –
3 | CC(Nc1cccc(F)c1)c1cc(C(=O)NC[C@@H](C)O)cc2ncc(N3CCOCC3)nc12 (single isomer, unassigned) [Compound 338a] | 89.8 °C | 68 nM | 1070 nM | 11 nM | 115 nM | 1510 nM | 7240 nM | 25700 nM | – | –
4 | CC(Nc1cccc(F)c1)c1cc(C(=O)NC[C@@H](C)O)cc2ncc(N3CCOCC3)nc12 (single isomer, unassigned) [Compound 338b] | 90.8 °C | > 513 nM | > 30200 nM | 851 nM | > 513 nM | 22900 nM | 2340 nM | 20000 nM | – | –
5 | CNCCOCCN(C)C(=O)c1cc(C(C)Nc2ccc(F)c(F)c2)c2nc(N3CCOCC3)cnc2c1 (single isomer, unassigned) [Compound 345a] | 80 °C | 28 nM | 282 nM | 2 nM | 79 nM | 4370 nM | 14800 nM | > 30200 nM | – | –
6 | CC(Nc1ccc(F)c(F)c1)c1cc(C(=O)NC[C@@H](C)O)cc2ncc(N3CCOCC3)nc12 (single isomer, unassigned) [Compound 346a] | 107 °C | 68 nM | 955 nM | 3 nM | 178 nM | 2510 nM | 9550 nM | 30900 nM | – | –
7 | CC(Nc1ccc(F)c(F)c1)c1cc(C(=O)NC[C@@H](C)O)cc2ncc(N3CCOCC3)nc12 (single isomer, unassigned) [Compound 346b] | 106 °C | > 513 nM | 20900 nM | 741 nM | > 513 nM | 23400 nM | 2750 nM | > 30200 nM | – | –
8 | CC(Nc1ccc(F)c(F)c1)c1cc(C(=O)NCC(C)(C)O)cc2ncc(N3CCOCC3)nc12 (single isomer, unassigned) [Compound 348a] | 102 °C | 138 nM | 912 nM | 10 nM | – | 3020 nM | 29500 nM | > 30200 nM | – | 288 nM
9 | CC(Nc1ccc(F)c(F)c1)c1cc(C(=O)N(C)CCN(C)C)cc2ncc(N3CCOCC3)nc12 (single isomer, unassigned) [Compound 349a] | 82 °C | 2 nM | 36 nM | 0.2 nM | 4 nM | 813 nM | 4270 nM | > 30200 nM | – | –

The next lines start with the values.

Row | melting point | IC50 [1] | Kd (PI3Kδ) | Kd (PI3Kβ) | IC50 [2] | Kd (kinase enzymes [3]) | Kd (kinase enzymes [4]) | Kd (kinase enzymes [5]) | IC50 ([1]; Homo sapiens, PC-3, 1 h) | IC50 ([2]; Homo sapiens, PC-3, 1 h) | Compound
10 | 75 °C | 56 nM | 288 nM | 2 nM | > 102 nM | 2140 nM | 8320 nM | > 30200 nM | – | – | CNCCNC(=O)c1cc(C(C)Oc2ccc(F)c(F)c2)c2nc(N3CCOCC3)cnc2c1 (single isomer, unassigned) [Compound 344a]
11 | 125 °C | – | > 30200 nM | 2690 nM | – | > 30200 nM | > 30200 nM | > 30200 nM | > 513 nM | > 513 nM | CC(Nc1ccc(F)c(F)c1)c1cc(C(=O)N2CCN3CCC[C@@H]3C2)cc2ncc(N3CCOCC3)nc12 (single isomer, unassigned) [Compound 347a]
12 | 116 °C | – | 16200 nM | 3310 nM | – | 22900 nM | > 30200 nM | > 30200 nM | > 513 nM | > 513 nM | CC(Nc1ccc(F)c(F)c1)c1cc(C(=O)N2C[C@@H](C)N[C@@H](C)C2)cc2ncc(N3CCOCC3)nc12 (single isomer, unassigned) [Compound 357a]
13 | 80 °C | – | 417 nM | 10 nM | – | 11000 nM | 26900 nM | > 30200 nM | 74 nM | ~126 nM | CC(Oc1ccc(F)c(F)c1)c1cc(C(=O)N2CC[C@H](N(C)C)C2)cc2ncc(N3CCOCC3)nc12 (single isomer, unassigned) [Compound 363a]
14 | 147 °C | > 513 nM | 28800 nM | 3310 nM | > 513 nM | > 30200 nM | > 30200 nM | > 30200 nM | – | – | CC(Oc1ccc(F)c(F)c1)c1cc(C(=O)N2CCN3CCC[C@H]3C2)cc2ncc(N3CCOCC3)nc12 (single isomer, unassigned) [Compound 369b]
15 | 128 °C | 40 nM | 107 nM | 0.3 nM | 107 nM | 1230 nM | 2630 nM | > 30200 nM | – | – | CN[C@H]1CCN(C(=O)c2cc(C(C)Oc3ccc(F)c(F)c3)c3nc(N4CCOCC4)cnc3c2)C1 (single isomer, unassigned) [Compound 370a]
16 | 80 °C | > 513 nM | 15500 nM | 550 nM | > 513 nM | > 30200 nM | > 30200 nM | > 30200 nM | – | – | CN[C@H]1CCN(C(=O)c2cc(C(C)Oc3ccc(F)c(F)c3)c3nc(N4CCOCC4)cnc3c2)C1 (single isomer, unassigned) [Compound 370b]
17 | 114 °C | 2 nM | 83 nM | 0.3 nM | 10 nM | 1510 nM | 1050 nM | > 30200 nM | – | – | CN[C@@H]1CCN(C(=O)c2cc(C(C)Nc3ccc(F)c(F)c3)c3nc(N4CCOCC4)cnc3c2)C1 (single isomer, unassigned) [Compound 371a]
18 | 107 °C | 251 nM | 5010 nM | 20 nM | > 513 nM | 12600 nM | 11000 nM | > 30200 nM | – | – | CN[C@@H]1CCN(C(=O)c2cc(C(C)Nc3ccc(F)c(F)c3)c3nc(N4CCOCC4)cnc3c2)C1 (single isomer, unassigned) [Compound 371b]
19 | 132 °C | 17 nM | 141 nM | 0.3 nM | 32 nM | 2460 nM | 5890 nM | > 30200 nM | – | – | CC(Nc1ccc(F)c(F)c1)c1cc(C(=O)N[C@H]2CCNC2)cc2ncc(N3CCOCC3)nc12 (single isomer, unassigned) [Compound 374a]
20 | 130 °C | > 513 nM | 5750 nM | 98 nM | > 513 nM | 13500 nM | 21900 nM | > 30200 nM | – | – | CC(Nc1ccc(F)c(F)c1)c1cc(C(=O)N[C@H]2CCNC2)cc2ncc(N3CCOCC3)nc12 (single isomer, unassigned) [Compound 374b]

Source: patent publication US10526316B2, “Quinoxaline and pyridopyrazine derivatives as PI3Kβ inhibitors” (Janssen Pharmaceutica NV, priority 2015, dated 2020)
